Article PMC5441637, “The mitochondrial SIR2 related protein 2 (SIR2RP2) impacts Leishmania donovani growth and infectivity” (PLoS Neglected Tropical Diseases, 2017)

Each compound was assayed against T1, SIR2 related protein 2 (LdSIR2RP2) (Leishmania donovani, UniProt A0A3S7WXV8) (assay: […]NAD+ ADP-ribosyltransferase assay on calf thymus histones, SDS-PAGE/PhosphorImager).
T1 construct: gene LdCL_230021600; full-length recombinant LdSIR2RP2 (complete ORF, 320 aa; MBP/His tag removed by TEV)
T1 sequence (A0A3S7WXV8 entry or part of it): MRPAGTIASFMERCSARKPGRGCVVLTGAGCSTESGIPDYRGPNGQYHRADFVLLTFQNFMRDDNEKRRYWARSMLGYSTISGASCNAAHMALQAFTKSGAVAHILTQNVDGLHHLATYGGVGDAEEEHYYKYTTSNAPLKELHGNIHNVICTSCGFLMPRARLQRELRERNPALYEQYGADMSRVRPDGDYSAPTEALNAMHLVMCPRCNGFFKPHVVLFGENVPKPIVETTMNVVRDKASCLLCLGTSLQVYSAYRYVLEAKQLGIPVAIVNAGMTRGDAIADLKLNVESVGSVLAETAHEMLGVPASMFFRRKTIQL
Format: biochemical
In the case of `NC(=O)C1CCCc2c1[nH]c1ccc(Cl)cc21` (stereo not drawn) [Ex-527, 6-chloro-2,3,4,9-tetrahydro-1H-carbazole-1-carboxamide], the “[32P]NAD+ ADP-ribosyltransferase assay on calf thymus histones, SDS-PAGE/Phospho” value is reported as ~ 50 μM.
With `O=c1[nH]c(=S)[nH]c(-c2ccccc2)c1Cc1c(O)ccc2ccccc12` [cambinol] the “[32P]NAD+ ADP-ribosyltransferase assay on calf thymus histones, SDS-PAGE/Phospho” value was ~ 2.5 μM.
With `NC(=O)c1cccnc1` [nicotinamide] the “[32P]NAD+ ADP-ribosyltransferase assay on calf thymus histones, SDS-PAGE/Phospho” value was ~ 50 μM.
